# Measured values: patent US20100041716A1, “[…] USE IN TREATING OR PREVENTING HYPERCHOLESTEROLEMIA” (MITOS PHARMACEUTICALS, INC., priority 2006, published 2010)
# Legend:
# [1] = tested on: farnesyl diphosphate synthase (FDPS); test: Gene expression in white adipose tissue of mice, Affymetrix MOE430A 2.0 microarray; type: in vivo
# Method: (§1) In a gene expression study, Tempol was administered to experimental mice at a dose of 5 g/kg of diet from 12 months through 15 months. Mice receiving the same diet without the addition of Tempol were used as a negative control. At the age of 15 months, the white adipose tissue of the experimental animals was obtained. The expression of a broad spectrum of genes in the adipose tissue was assessed using chip-based microarray technology. Specifically, in this case an Affymetrix MOE430A 2.0 array, containing 12,960 genes, was employed. Such chips are well known in the art and are widely used to assess gene expression.
# [2] = tested on: lanosterol synthase (LSS); test: as above; type: in vivo
# Method: as §1
# [3] = tested on: NAD(P) dependent steroid dehydrogenase-like (NSDHL); test: as above; type: in vivo
# Method: as §1
# LSS = test: Protein level in patient after Tempol treatment; type: in vivo, human; settings: 1500 mg per day for 180 days
# Method: (§2) A 70-kilogram patient having levels of fasting plasma total cholesterol indicative of hypercholesterolemia is administered a dose of 1500 mg of Tempol per day for 180 days. This may be administered in a single dose, or may be administered as a number of smaller doses over a 24-hour period: for example, three 500-mg doses at eight-hour intervals. Following treatment, the protein level of each of LSS, FDPS, and NSDHL is reduced.
# as §2, with “at risk for developing” for “having levels of fasting plasma total cholesterol indicative of”
# FDPS = test: Protein level in patient after Tempol treatment; type: in vivo, human; settings: 1500 mg per day for 180 days
# Method: as §2
# as §2, with “at risk for developing” for “having levels of fasting plasma total cholesterol indicative of”
# NSDHL = test: Protein level in patient after Tempol treatment; type: in vivo, human; settings: 1500 mg per day for 180 days
# Method: as §2
# as §2, with “at risk for developing” for “having levels of fasting plasma total cholesterol indicative of”
# [4] = adipose tissue of mice treated with Tempol
# [5] = Example 1: 70-kilogram patient with hypercholesterolemia
# [6] = Example 2: 70-kilogram patient at risk for hypercholesterolemia
smiles,measurement,setting,value
"CC1(C)CC(O)CC(C)(C)N1[O] [Tempol, 4-hydroxy-2,2,6,6-tetramethylpiperidine-1-oxyl]",Fold change,"[1]; FDPS expression, Tempol-treated vs control mice, white adipose tissue",−2.08
same,Mean (Tempol-treated mice),"[1]; FDPS expression, white adipose tissue, 5 g/kg of diet from 12 through 15 months",1274
same,expression of FDPS decreased,[1]; [4],2.08 fold
same,Fold change,"[2]; LSS expression, Tempol-treated vs control mice, white adipose tissue",−2.33
same,Mean (Tempol-treated mice),"[2]; LSS expression, white adipose tissue, 5 g/kg of diet from 12 through 15 months",224
same,expression of LSS decreased,[2]; [4],2.33 fold
same,Fold change,"[3]; NSDHL expression, Tempol-treated vs control mice, white adipose tissue",−1.64
same,Mean (Tempol-treated mice),"[3]; NSDHL expression, white adipose tissue, 5 g/kg of diet from 12 through 15 months",1398
same,expression of NSHDL decreased,[3]; [4],1.64 fold
same,protein level of LSS,LSS; [5],reduced
same,protein level of LSS,LSS; [6],reduced
same,protein level of FDPS,FDPS; [5],reduced
same,protein level of FDPS,FDPS; [6],reduced
same,protein level of NSDHL,NSDHL; [5],reduced
same,protein level of NSDHL,NSDHL; [6],reduced
